Data taken from publication PMC9023544, “Ketone-selenoesters as potential anticancer and multidrug resistance modulation agents in 2D and 3D ovarian and breast cancer in vitro models” (Scientific Reports, 2022).
Counter-ions that a name gives are not always drawn. Like-named read-outs stand apart in the source and are kept apart here.

Assays:
[1] = system: HOC (human parental ovarian adenocarcinoma, A2780); test: Cytotoxic activity, 2D, resazurin, 72 h; format: cell-based; settings: for IC50: 2D, 72 h, mean ± SEM, n=3, read-out: HOC IC50; for SI HEK293/HOC: IC50 HEK293 / IC50 HOC
Experimental: (§1) The cytotoxic potential of selenoesters was tested on several cancer cell lines—HOC (human parental ovarian adenocarcinoma, HOC, A2780, Sigma-Aldrich), HOC/ADR (sub-line resistant to Adriamycin, A2780/ADR, Sigma-Aldrich), MCF-7 (human breast adenocarcinoma, ATCC®, HTB-22TM), MCF-7/PAX (resistant sub-line established by gradual adaptation of parental cells to increased concentration of paclitaxel; kindly provided by Division of Cell and Molecular Biology, Third Faculty of Medicine, Charles University, Czech Republic) and on one non-cancerous cell line—HEK293 (human embryonic kidney cell line, Leibniz Institute, DSMZ-German Collection of Microorganisms and Cell Cultures GmbH). All mentioned cell lines were authenticated using short tandem repeat (STR) profiling. Cell lines were cultivated in DMEM medium (10% FBS, 1× antibiotic antimycotic solution), except for HEK293 cell line which was cultivated without antibiotics. In case of the resistant cell lines, the medium was supplemented with a required concentration of cytostatics to maintain resistance (HOC/ADR—100 nM Adriamycin; MCF-7/PAX—300 nM paclitaxel). All cells were cultivated in a CO2 incubator (5% CO2, 37 °C, Thermo Fisher Scientific).
(§2) For the experiment, the cells at passage number 5–20 were seeded at a 1 × 10^5 cells/mL concentration into 96-well plates to 100 µL final volume. The final concentration range of the compounds was 0.63–20 µM. After an incubation of 72 h, the plates were washed 1× with PBS and resazurin solution (0.03 mg/mL in 1× PBS) was added. After 1 h of incubation, the fluorescence signal was recorded (ex./em. 560/590 nm).
(§3) The selectivity index (SI) was determined as the ratio of IC50 value for the non-cancerous cells to IC50 for the cancer cell line. For resistant cell lines, the collateral sensitivity (CS) was calculated as the ratio of IC50 value in sensitive tumour cells to IC50 in the resistant cancer cell line. In both cases, the selectivity is considered as: (1) strongly selective when SI or CS value is above 6, (2) moderately selective when SI or CS is between 3 and 6, (3) slightly selective when SI or CS is between 1 and 3 and (4) non-selective when SI or CS is less than 1[23].

[2] = system: HOC/ADR (sub-line resistant to Adriamycin, A2780/ADR); test: Cytotoxic activity, 2D, resazurin, 72 h; format: cell-based, human; settings: for IC50 / IC10: Homo sapiens, A2780 ADR, 72 h; for IC50: 2D, mean ± SEM, n=3, read-out: HOC/ADR IC50; for IC10: HOC/ADR, concentration that should not decrease viability under 90%, read-out: IC10 of compounds; for SI HEK293/HOC/ADR: IC50 HEK293 / IC50 HOC/ADR; for CS (collateral sensitivity index): IC50 HOC / IC50 HOC/ADR
Experimental: as §1, §2, §3

[3] = system: HOC/ADR; test: Sensitization of MDR cell line to Adriamycin; format: cell-based, human; settings: for Fold change: IC50 of Adriamycin / IC50 of Adriamycin with IC10 dose of compound; for increase of the IC50 of Adriamycin: IC10 dose of compound
Experimental: To determine the sensitization potential of compounds, HOC/ADR and MCF-7/PAX were used. Based on the cytotoxic potential of the compounds against several cancer and non-cancerous cell lines (Table 1), the concentrations of applied compounds were adjusted. IC10 values was considered as the concentrations, which should not decrease the cell viability under 90%. After the addition of compounds, Adriamycin (concentration range 0.1–20 µM) and paclitaxel (concentration range 0.1–10 µM) were added to HOC/ADR and MCF-7/PAX, respectively. The sensitization potential of the compounds was determined as the ratio of the IC50 of cytostatic agent (Adriamycin/paclitaxel) to the IC50 of cytostatic agent affected by the compound in concentration corresponding to the IC10 value. Fold change greater than 1 indicated synergic effect of cytostatic agent and the tested compound.
After that, the plates were washed 1× with PBS and fresh DMEM medium supplemented with tested compounds at final concentration corresponding their IC10 value was added, except for positive control wells. Subsequently, Adriamycin (concentration range 0.1–20 µM) or paclitaxel (concentration range 0.1–10 µM) was added to the appropriate cell line for 72 h. After incubation, the cells were washed 1× with PBS and the resazurin solution (0.03 mg/mL) was added to evaluate the cell viability as described above. IC50 values of cytostatics were calculated for both the control and compounds; a fold change was counted up. When this fold change is higher than 1 indicates a synergism between the tested cytostatic agent and the compound, while a fold change lower than 1 means an antagonism. Fold change=IC50value of cytostatic treated cells only/IC50value of cytostatic treated cells in addition of the compound

[4] = system: MCF-7 (human breast adenocarcinoma); test: Cytotoxic activity, 2D, resazurin, 72 h; format: cell-based; settings: for IC50: Homo sapiens, MCF7, 2D, 72 h, mean ± SEM, n=3, read-out: MCF-7 IC50; for SI HEK293/MCF-7: IC50 HEK293 / IC50 MCF-7
Experimental: as §1, §2, §3

[5] = system: MCF-7/PAX (paclitaxel-resistant sub-line); test: Cytotoxic activity, 2D, resazurin, 72 h; format: cell-based, human; settings: for IC50: Homo sapiens, MCF7, 2D, 72 h, mean ± SEM, n=3, read-out: MCF-7/PAX IC50; for SI HEK293/MC7-7/PAX: IC50 HEK293 / IC50 MCF-7/PAX; for CS (collateral sensitivity index): IC50 MCF-7 / IC50 MCF-7/PAX
Experimental: as §1, §2, §3

[6] = system: HEK293 (human embryonic kidney cell line); test: Cytotoxic activity, non-cancerous cell line, resazurin, 72 h; format: cell-based; settings: Homo sapiens, HEK293; 72 h, mean ± SEM, n=3
Experimental: as §1, §2, §3

SMILES: COc1cccc2c1C(=O)c1c(O)c3c(c(O)c1C2=O)C[C@@](O)(C(=O)CO)C[C@@H]3O[C@H]1C[C@H](N)[C@H](O)[C@H](C)O1 [ADR, doxorubicin hydrochloride, reference compound]
- IC50 ([1]; Homo sapiens, A2780, 72 h): 10 nM
- IC50 [2]: 2500 nM
- IC50 ([3]; Homo sapiens, Adriamycin 0.1–20 µM with IC10 dose of compound, 72 h, ADR row = Adriamycin alone): 2500 nM

SMILES: CC(=O)C[Se]C(=O)c1cccs1 [K1]
- IC50 [1]: 800 nM
- IC50 ([1]; Homo sapiens, A2780, 72 h): < 1000 nM
- SI HEK293/HOC [1]: 1.2 ± 0.1
- IC50 [4]: 1600 ± 100 nM
- SI HEK293/MCF-7 [4]: 0.6 ± 0.1
- IC10 [2]: 1500 nM
- IC50 [2]: 2300 nM
- SI HEK293/HOC/ADR [2]: 0.4 ± 0.0
- CS (collateral sensitivity index) [2]: 0.4 ± 0.0
- IC50 [5]: 2200 ± 200 nM
- SI HEK293/MC7-7/PAX [5]: 0.4 ± 0.0
- CS (collateral sensitivity index) [5]: 0.7 ± 0.1
- IC50 [6]: 1000 ± 100 nM
- Fold change [3]: (1.3 ± 0.1)×

SMILES: CC(=O)C[Se]C(=O)c1ccccc1F [K2]
- IC50 [1]: 800 ± 100 nM
- IC50 ([1]; Homo sapiens, A2780, 72 h): < 1000 nM
- SI HEK293/HOC [1]: 1.6 ± 0.1
- IC50 [4]: 1900 ± 100 nM
- SI HEK293/MCF-7 [4]: 0.7 ± 0.1
- IC10 [2]: 1000 nM
- IC50 [2]: 2400 ± 100 nM
- SI HEK293/HOC/ADR [2]: 0.5 ± 0.0
- CS (collateral sensitivity index) [2]: 0.3 ± 0.0
- IC50 [5]: 1900 ± 100 nM
- SI HEK293/MC7-7/PAX [5]: 0.6 ± 0.1
- CS (collateral sensitivity index) [5]: 1.0 ± 0.1
- IC50 [6]: 1200 ± 100 nM
- Fold change [3]: (1.2 ± 0.0)×

SMILES: CC(=O)C[Se]C(=O)c1cccc(C(F)(F)F)c1 [K5]
- IC50 ([1]; Homo sapiens, A2780, 72 h): 1100 nM
- SI HEK293/HOC [1]: 1.5 ± 0.0
- IC50 [4]: 1600 ± 100 nM
- SI HEK293/MCF-7 [4]: 1.0 ± 0.1
- IC10 [2]: 1500 nM
- IC50 [2]: 2200 ± 300 nM
- SI HEK293/HOC/ADR [2]: 0.7 ± 0.1
- CS (collateral sensitivity index) [2]: 0.5 ± 0.1
- IC50 [5]: 2800 ± 100 nM
- SI HEK293/MC7-7/PAX [5]: 0.6 ± 0.0
- CS (collateral sensitivity index) [5]: 0.6 ± 0.1
- IC50 [6]: 1600 nM
- increase of the IC50 of Adriamycin [3]: almost twofold
- Fold change [3]: (0.5 ± 0.1)×

SMILES: CC(=O)C[Se]C(=O)c1ccc(F)c(Cl)c1 [K6]
- IC50 [1]: 700 ± 100 nM
- IC50 ([1]; Homo sapiens, A2780, 72 h): < 1000 nM
- SI HEK293/HOC [1]: 2.7 ± 0.4
- IC50 [4]: 2100 ± 200 nM
- SI HEK293/MCF-7 [4]: 0.9 ± 0.2
- IC10 [2]: 1300 nM
- IC50 [2]: 2600 ± 100 nM
- SI HEK293/HOC/ADR [2]: 0.8 ± 0.1
- CS (collateral sensitivity index) [2]: 0.3 ± 0.0
- IC50 [5]: 2300 ± 300 nM
- SI HEK293/MC7-7/PAX [5]: 0.9 ± 0.1
- CS (collateral sensitivity index) [5]: 0.9 ± 0.1
- IC50 [6]: 2000 ± 100 nM
- Fold change [3]: (1.1 ± 0.1)×

SMILES: CC(=O)C[Se]C(=O)c1cc(F)c(F)cc1F [K8]
- IC50 ([1]; Homo sapiens, A2780, 72 h): 2100 ± 100 nM
- SI HEK293/HOC [1]: 0.9 ± 0.1
- IC50 [4]: 2600 ± 400 nM
- SI HEK293/MCF-7 [4]: 0.8 ± 0.1
- IC10 [2]: 3000 nM
- IC50 [2]: 2700 nM
- SI HEK293/HOC/ADR [2]: 0.7 ± 0.0
- CS (collateral sensitivity index) [2]: 0.8 ± 0.1
- collateral sensitivity against paclitaxel-resistant breast carcinoma (in words) [5]: slight collateral sensitivity
- IC50 [5]: 2000 ± 100 nM
- SI HEK293/MC7-7/PAX [5]: 1.0 ± 0.2
- CS (collateral sensitivity index) [5]: 1.3 ± 0.3
- IC50 [6]: 2000 ± 200 nM
- Fold change [3]: (1.1 ± 0.1)×

SMILES: N#CC[Se]C(=O)c1cccs1 [N1]
- IC50 ([1]; Homo sapiens, A2780, 72 h): 2700 ± 300 nM
- SI HEK293/HOC [1]: 2.2 ± 0.4
- IC50 [4]: 3100 ± 200 nM
- SI HEK293/MCF-7 [4]: 2.0 ± 0.3
- IC10 [2]: 2500 nM
- IC50 [2]: 4200 ± 200 nM
- SI HEK293/HOC/ADR [2]: 1.4 ± 0.2
- CS (collateral sensitivity index) [2]: 0.7 ± 0.1
- collateral sensitivity against paclitaxel-resistant breast carcinoma (in words) [5]: slight collateral sensitivity
- IC50 [5]: 2500 nM
- SI HEK293/MC7-7/PAX [5]: 2.4 ± 0.4
- CS (collateral sensitivity index) [5]: 1.2 ± 0.2
- IC50 [6]: 6000 ± 600 nM
- increase of the IC50 of Adriamycin [3]: 3.5 fold
- Fold change [3]: (0.3 ± 0.1)×

SMILES: N#CC[Se]C(=O)c1cccc(F)c1 [N2]
- IC50 ([1]; Homo sapiens, A2780, 72 h): 7100 ± 200 nM
- SI HEK293/HOC [1]: 1.1 ± 0.1
- IC50 [4]: 2600 ± 100 nM
- SI HEK293/MCF-7 [4]: 3.0 ± 0.2
- collateral sensitivity against HOC/ADR (in words) [2]: slight collateral sensitivity
- IC10 [2]: 3000 nM
- IC50 [2]: 4700 ± 100 nM
- SI HEK293/HOC/ADR [2]: 1.7 ± 0.1
- CS (collateral sensitivity index) [2]: 1.5 ± 0.1
- IC50 [5]: 2500 ± 300 nM
- SI HEK293/MC7-7/PAX [5]: 3.1 ± 0.2
- CS (collateral sensitivity index) [5]: 1.0 ± 0.1
- IC50 [6]: 7800 ± 200 nM
- Fold change [3]: (1.2 ± 0.1)×

SMILES: N#CC[Se]C(=O)c1ccc(Br)cc1 [N3]
- IC50 ([1]; Homo sapiens, A2780, 72 h): 6500 ± 300 nM
- SI HEK293/HOC [1]: 1.2 ± 0.1
- IC50 [4]: 2300 ± 500 nM
- SI HEK293/MCF-7 [4]: 3.5 ± 0.9
- collateral sensitivity against HOC/ADR (in words) [2]: slight collateral sensitivity
- IC10 [2]: 3100 nM
- IC50 [2]: 5200 ± 100 nM
- SI HEK293/HOC/ADR [2]: 1.5 ± 0.1
- CS (collateral sensitivity index) [2]: 1.3 ± 0.1
- IC50 [5]: 2700 ± 200 nM
- SI HEK293/MC7-7/PAX [5]: 3.0 ± 0.6
- CS (collateral sensitivity index) [5]: 0.9 ± 0.3
- IC50 [6]: 8000 ± 300 nM
- Fold change [3]: (1.3 ± 0.0)×

SMILES: CC(=O)O[C@H]1C(=O)[C@@]2(C)[C@H]([C@H](OC(=O)c3ccccc3)[C@]3(O)C[C@H](OC(=O)[C@H](O)[C@@H](NC(=O)c4ccccc4)c4ccccc4)C(C)=C1C3(C)C)[C@]1(OC(C)=O)CO[C@@H]1C[C@@H]2O [PAX, paclitaxel, reference compound]
- IC50 [4]: 30 nM
- IC50 [5]: 1500 nM
